# Where two headings read alike, the source gives them in different places. Where a SMILES comes first, the peptide text is derived from it.
# Experiments:
# Experiment in all cases: microbe, parasite or virus in culture
# Assay type in all cases: cell-based
# [1] = system: Pseudomonas aeruginosa ATCC 27853
# Protocol: (§1) Antimicrobial testing of 78 cathelicidin MPs was performed in two phases as outlined in Figure 1 . In phase I, 40 peptides (27 extant and 13 ancestral) were selected for testing based on rank (outlined above) and similarity to published marsupial cathelicidins with known antimicrobial activity ([33], [41]–[43]). These peptides were tested against nine bacteria (Staphylococcus aureus ATCC 29213 and clinical isolate, Escherichia coli ATCC 25922 and clinical isolate, Pseudomonas aeruginosa ATCC 27853 and clinical isolate, Streptococcus agalactiae ATCC 12386 and clinical isolate, Streptococcus pneumoniae ATCC 49619) and three fungi (Candida krusei ATCC 6258, Candida parapsilosis ATCC 22019, and Candida albicans clinical isolate). Details regarding these strains are available in Supplementary Table 4 . The antimicrobial activity of cathelicidins was determined as the minimum inhibitory concentration (MIC), which was the lowest concentration of cathelicidin that prevented visible bacterial or fungal growth, relative to the negative control. […] Minimum bactericidal concentration (MBC) and/or minimum fungicidal concentration (MFC) was conducted to determine microbicidal versus static action. Activity against S. aureus ATCC, E. coli ATCC, and Pseudomonas aeruginosa ATCC 27853 was examined in the presence of divalent cations to determine the impact of inhibitors.
# (§2) In phase II, the remaining 38 peptides (37 extant and one ancestral) were tested against six bacteria (S. aureus ATCC and clinical isolate, E. coli ATCC and clinical isolate, and P. aeruginosa ATCC and clinical isolate). […] No further testing on phase II peptides was performed. Detailed methods for all assays are provided in subsequent sections.
# (§3) Antimicrobial activity was determined using a broth microdilution susceptibility assay in 96 well polypropylene plates according to Clinical Laboratory Standards Institute guidelines M07-A and M26A as described previously ([33], [42], [43]). The bacterial and fungal isolates from humans and animals used in this study are outlined in Supplementary Table 4 . Only yeasts were included in the panel of fungi as they have been used in the susceptibility testing of eutherian ([3], [81]–[83]) and other marsupial cathelicidins previously ([33], [42], [43]). Cathelicidin mature peptides were solubilized in DMSO and serially diluted in duplicate from 128-0.25μg/mL in a final volume of 100µL. For bacteria, cathelicidins were diluted in Mueller Hinton Broth (MHB) with or without 10% lysed horse blood, and with (MH II B) or without (MHB) calcium and magnesium cations. For fungi, cathelicidins were diluted in Roswell Park Memorial Institute medium (RPMI)-1640 MOPS. Ampicillin or tetracycline were included as a positive control for Gram-positive and -negative bacteria respectively, while amphotericin B was used for fungi. A media-only negative control and growth control (no cathelicidin) were also included on each plate. Bacteria were sub-cultured on Muller Hinton agar (MHA) or sheep blood agar (BA), and fungi on Sabouraud dextrose agar (SAB), 20–24 hours prior to the test. Colonies were suspended in saline, the concentration adjusted to a 0.5 McFarland standard, and then diluted in media to a concentration of 1.0 x 10^6 cells/mL. Then, 100μL was added to each well of the cathelicidin dilution plate, giving a final inoculum density of 5 x 10^5 CFU/mL and cathelicidin concentration of 64-0.125μg/mL. Colony counts were performed on MHA/BA/SAB to confirm inoculum density. All plates were incubated at 35°C for 20–24 hours, depending on the strain.
# (§4) Colonies were counted and compared to the colony count of the starting inoculum.
# [2] = system: Pseudomonas aeruginosa clinical isolate - animal
# Protocol: as §1, §2, §3, §4
# [3] = system: Escherichia coli ATCC 25922
# Protocol: as §1, §2, §3, §4
# [4] = system: Escherichia coli clinical isolate - animal
# Protocol: as §1, §2, §3, §4
# [5] = system: Staphylococcus aureus ATCC 29213; conditions: for MIC: read-out: MIC S. aureus ATCC
# Protocol: as §1, §2, §3, §4
# [6] = system: Staphylococcus aureus clinical isolate - animal; conditions: for MIC: read-out: MIC S. aureus
# Protocol: as §1, §2, §3, §4
# [7] = ATCC 27853, read-out: MIC P. aeruginosa ATCC
# [8] = clinical isolate - animal, read-out: MIC P. aeruginosa
# [9] = clinical isolate, µM equivalent of Table 3
MIC ([4]; clinical isolate - animal),"MIC [1, 7]","MIC [2, 8]",MIC S. aureus ([6]; clinical isolate - animal),MIC E. coli ATCC ([3]; ATCC 25922),MIC ([5]; ATCC 29213),SMILES,MBC S. aureus ATCC ([5]; ATCC 29213),MBC S. aureus ([6]; clinical isolate - animal),MBC E. coli ATCC ([3]; ATCC 25922),MBC E. coli ([4]; clinical isolate - animal),other results
–,–,–,–,–,–,"CN(C)[C@@H]1C(O)=C(C(N)=O)C(=O)[C@@]2(O)C(O)=C3C(=O)c4c(O)cccc4[C@@](C)(O)[C@H]3C[C@@H]12 [Tetracycline, reference compound]",–,–,–,–,"MIC ([1]; Pseudomonas aeruginosa, ATCC27853, MHB without cations, 5 x 10^5 CFU/mL, 35°C 20–24 hours, duplicate, read-out: MIC P. aeruginosa ATCC): 32 µg/mL; MIC ([1]; Pseudomonas aeruginosa, ATCC27853, superscript value, cation-adjusted Mueller Hinton broth, read-out: MIC in the presence of cations P. aeruginosa ATCC): 32 µg/mL; MIC ([1]; Pseudomonas aeruginosa, ATCC27853, superscript value, cation-adjusted Mueller Hinton broth, µM equivalent, read-out: MIC in the presence of cations P. aeruginosa ATCC): 72 µM; MIC ([1]; Pseudomonas aeruginosa, ATCC27853, µM equivalent of Table 3, read-out: MIC P. aeruginosa ATCC): 72 µM; MIC ([2]; Pseudomonas aeruginosa, clinical isolate, MHB without cations, 5 x 10^5 CFU/mL, 35°C 20–24 hours, duplicate, read-out: MIC P. aeruginosa): 32 µg/mL; MIC ([2]; Pseudomonas aeruginosa, clinical isolate, superscript value, cation-adjusted Mueller Hinton broth, read-out: MIC in the presence of cations P. aeruginosa): 32 µg/mL; MIC ([2]; Pseudomonas aeruginosa, clinical isolate, superscript value, cation-adjusted Mueller Hinton broth, µM equivalent, read-out: MIC in the presence of cations P. aeruginosa): 72 µM; MIC ([2]; Pseudomonas aeruginosa, clinical isolate, µM equivalent of Table 3, read-out: MIC P. aeruginosa): 72 µM"
>17.3 µM,>17.3 µM,>17.3 µM,8.6 µM,–,–,CC[C@H](C)[C@H](NC(=O)[C@H](CC(N)=O)NC(=O)[C@H](CCCNC(=N)N)NC(=O)[C@H](CC(C)C)NC(=O)[C@H](CCCCN)NC(=O)[C@H](CCCNC(=N)N)NC(=O)[C@H](Cc1ccccc1)NC(=O)[C@@H](NC(=O)[C@H](CC(N)=O)NC(=O)[C@H](CCC(N)=O)NC(=O)[C@H](CC(C)C)NC(=O)[C@@H](NC(=O)[C@H](CCCNC(=N)N)NC(=O)[C@H](Cc1ccc(O)cc1)NC(=O)[C@H](CCCCN)NC(=O)[C@H](CCC(N)=O)NC(=O)[C@H](Cc1ccc(O)cc1)NC(=O)[C@@H](NC(=O)[C@H](CC(C)C)NC(=O)[C@@H](N)CC(N)=O)[C@@H](C)CC)[C@@H](C)CC)C(C)C)C(=O)N[C@@H](Cc1ccccc1)C(=O)N[C@@H](CO)C(=O)N[C@@H](CCCNC(=N)N)C(=O)NCC(=O)N[C@@H](CCCNC(=N)N)C(=O)N[C@@H](CC(=O)O)C(=O)N[C@@H](CC(=O)O)C(=O)N[C@@H](CCCCN)C(=O)N[C@@H](CCC(=O)O)C(=O)O [MaruCath9] (H-NLIYQKYRILQNVFRKLRNIFSRGRDDKE-OH),8.6 µM,8.6 µM,–,–,"MIC ([3]; ATCC 25922, read-out: MIC E. coli ATCC): >17.3 µM; MIC S. aureus ATCC ([5]; ATCC 29213): 8.6 µM"
3.9 µM,>15.9 µM,>15.9 µM,7.9 µM,3.9 µM,7.9 µM,CC[C@H](C)[C@H](NC(=O)[C@H](CC(C)C)NC(=O)[C@H](CC(N)=O)NC(=O)[C@@H](NC(=O)[C@H](Cc1ccccc1)NC(=O)CNC(=O)[C@@H](N)Cc1c[nH]c2ccccc12)[C@@H](C)O)C(=O)N[C@@H](Cc1ccc(O)cc1)C(=O)N[C@@H](CCC(N)=O)C(=O)N[C@@H](CCCCN)C(=O)N[C@@H](Cc1ccc(O)cc1)C(=O)N[C@@H](CCCCN)C(=O)N[C@@H](CC(C)C)C(=O)N[C@@H](CC(C)C)C(=O)N[C@@H](CCCNC(=N)N)C(=O)N[C@@H](CC(N)=O)C(=O)N[C@H](C(=O)N[C@@H](Cc1ccccc1)C(=O)N[C@@H](CCCNC(=N)N)C(=O)N[C@@H](CCCCN)C(=O)N[C@@H](CC(C)C)C(=O)N[C@@H](CCCNC(=N)N)C(=O)N[C@@H](CC(N)=O)C(=O)N[C@H](C(=O)N[C@@H](CO)C(=O)N[C@@H](CO)C(=O)NCC(=O)NCC(=O)N[C@@H](CCCNC(=N)N)C(=O)N[C@@H](CC(=O)O)C(=O)N[C@@H](CC(N)=O)C(=O)N[C@@H](CCCCN)C(=O)N[C@@H](CCCCN)C(=O)O)[C@@H](C)O)C(C)C [BepeCath4] (H-WGFTNLIYQKYKLLRNVFRKLRNTSSGGRDNKK-OH),15.9 µM,7.9 µM,3.9 µM,7.9 µM,–
–,–,–,–,–,–,CC[C@H](C)[C@H](NC(=O)[C@H](CO)NC(=O)[C@H](CCCNC(=N)N)NC(=O)CNC(=O)[C@@H]1CCCN1C(=O)[C@H](CCCNC(=N)N)NC(=O)[C@@H]1CCCN1C(=O)[C@H](CCCNC(=N)N)NC(=O)[C@@H]1CCCN1C(=O)[C@H](CCCNC(=N)N)NC(=O)[C@@H]1CCCN1C(=O)[C@H](Cc1ccccc1)NC(=O)[C@H](CC(N)=O)NC(=O)[C@@H]1CCCN1C(=O)[C@H](CCCNC(=N)N)NC(=O)[C@@H]1CCCN1C(=O)[C@H](Cc1ccccc1)NC(=O)[C@H](CCCNC(=N)N)NC(=O)[C@@H]1CCCN1C(=O)[C@H](CCCNC(=N)N)NC(=O)[C@@H]1CCCN1C(=O)[C@H](CC(C)C)NC(=O)[C@H](Cc1ccc(O)cc1)NC(=O)[C@@H]1CCCN1C(=O)[C@H](CCCNC(=N)N)NC(=O)[C@H](CCCNC(=N)N)NC(=O)[C@@H](NC(=O)[C@H](CCCNC(=N)N)NC(=O)[C@H](CCCNC(=N)N)NC(=O)[C@H](C)NC(=O)[C@H](C)NC(=O)[C@H](CC(C)C)NC(=O)[C@H](CC(C)C)NC(=O)CN)[C@@H](C)CC)C(=O)O [SmcrCath12] (H-GLLAARRIRRPYLPRPRFPRPNFPRPRPRPGRSI-OH),–,–,–,–,"MBC E. coli ATCC ([3]; value in brackets, µM equivalent of Table 3): 1.9 µM; MIC E. coli ATCC ([3]; µM equivalent of Table 3): 1.9 µM; MBC E. coli ([4]; clinical isolate, value in brackets, µM equivalent of Table 3): 3.9 µM; MIC E. coli [4, 9]: 3.9 µM; MIC ([1]; µM equivalent of Table 3, read-out: MIC P. aeruginosa ATCC): >15.6 µM; MIC ([2]; clinical isolate, µM equivalent of Table 3, read-out: MIC P. aeruginosa): >15.6 µM; MIC ([5]; µM equivalent of Table 3): >15.6 µM; MIC [6, 9]: >15.6 µM"
3.9 µM,>15.7 µM,>15.7 µM,–,3.9 µM,>15.7 µM,CC[C@H](C)[C@H](NC(=O)CNC(=O)[C@H](Cc1ccccc1)NC(=O)CNC(=O)[C@@H](NC(=O)[C@@H](NC(=O)[C@H](CCCNC(=N)N)NC(=O)[C@H](CCCNC(=N)N)NC(=O)[C@H](CCCNC(=N)N)NC(=O)[C@@H](NC(=O)[C@H](CO)NC(=O)[C@H](CC(N)=O)NC(=O)[C@H](CCCCN)NC(=O)[C@H](CC(C)C)NC(=O)[C@H](CCCCN)NC(=O)[C@H](CCSC)NC(=O)CNC(=O)[C@@H](NC(=O)[C@H](CCCCN)NC(=O)[C@H](CCCCN)NC(=O)[C@@H](NC(=O)[C@@H](NC(=O)[C@H](CC(=O)O)NC(=O)[C@H](Cc1c[nH]c2ccccc12)NC(=O)[C@H](CC(C)C)NC(=O)CNC(=O)[C@H](CCCNC(=N)N)NC(=O)[C@@H](N)CCCCN)[C@@H](C)O)C(C)C)[C@@H](C)O)[C@@H](C)CC)C(C)C)[C@@H](C)O)C(=O)NCC(=O)N[C@H](C(=O)N[C@@H](C)C(=O)N[C@H](C(=O)N[C@@H](CC(C)C)C(=O)N[C@H](C(=O)N1CCC[C@H]1C(=O)N[C@@H](CCCNC(=N)N)C(=O)O)C(C)C)[C@@H](C)CC)[C@@H](C)O [LahiCath5] (H-KRGLWDTVKKTGMKLKNSIRRRVTGFGIGTAILVPR-OH),–,–,3.9 µM,7.8 µM,MIC ([6]; clinical isolate - animal): >15.7 µM

# From PMC12006171, “Marsupial cathelicidins: characterization, antimicrobial activity and evolution in this unique mammalian lineage” (Frontiers in Immunology, 2025)
